The subject of one series is human HT-29 cancer cells. As to the kind of experiment: Nicoletti apoptosis assay by cell cycle analysis (sub-G1 fraction). In kind it is cell-based. Particulars: combination: compound plus Irinotecan 1.18 μM, agent-free control 3.4 ± 0.9%. The procedure:
Cancer cells were transferred to 12-well flat-bottomed plates. Cell suspensions (1 ml) containing 1.5×10^5 viable cells were plated into each well and incubated over night before exposure with various concentrations of agents. Cells were then incubated in 1 ml medium with various concentrations of single applied moguntinones, irinotecan alone, or with the combinations of moguntinones with irinotecan or topotecan at 37° C. with 5% CO2.
After incubation cells were washed with PBS, trypsinizated, palleted and mixed with propidium-iodide-buffer (containing 0.1% sodium citrate, 0.1% triton X-100, […] propidium-iodide) and incubated for 1 hour at 4° C. Cell cycle sub-G1-fraction analysis was performed as described previously^23 using a FACS cytometer (BD FACS Calibur™, BD Biosciences, Heidelberg, Germany). Each experiment was done in triplicate.
All cells were maintained at 37° C. in an incubator under an atmosphere containing 5% CO2. After incubation the cells were washed with PBS, trypsinized, pelleted and mixed with PI buffer (containing 0.1% sodium citrate, 0.1% triton X-100, […] propidium iodide (PI)) and incubated for 1 hour at 4° C. Cell cycle sub-G1 fraction analysis was performed as described previously (Nicoletti, I. et al. (1991) J. Immunol. Methods 139, 271-279) using a flow cytometer (BD FACS Calibur™, BD Biosciences, Heidelberg, Germany). […]

Series [1] deals with HT-29 human colon adenocarcinoma cells. Description: Evaluation of antiproliferative effect (MTT assay). In kind it is cell-based. Particulars: 72 h, treatment for 3 days, untreated HT-29 cells: 100%, read-out: Decrease of HT-29 colon cancer cell viability (%). The method, then:
Cell suspensions (200 μl) containing 10,000 viable cells were plated into each well and incubated over night before exposure with various concentrations of agents. Cells were then incubated with 100 μl of different concentrations of compounds for 3 days at 37° C. with 5% CO2. At the end of the time point (3 days), 10 μl/well of MTT stock solution (5 mg/ml) (Biomol, Germany) were added. […] Each experiment was done in triplicate. […]
The antitumor efficacy of the compounds of the invention was examined against HT-29 human colon adenocarcinoma cells. […] The compound of example 1 of WO 2006/061212 was used as comparative compound.
Background: Formazan colour is commonly taken as a measure of viable cells.

The structures appear in SMILES notation.

In general, melting point refers to the temperature, or range, at which the solid turns liquid. What is called viability is a read-out of living cells in per cent, often relative to untreated cells.

For `COc1cc(C2=C(c3cn(CCN)c4ccccc34)C(=O)NC2=O)cc(OC)c1OC.Cl` [Example 1, 3-(1-[2-Ammonioethyl]-1H-indol-3-yl)-4-(3,4,5-trimethoxyphenyl)-maleinimide-chloride], the melting point stood at 277.1 °C. Moreover, in the series with human HT-29 cancer cells, the “Induction of apoptosis, combination compound plus irinotecan” value worked out at 51.00 ± 0.56%. Besides, in series [1], the viability at 2.6 µM was 32.3 ± 1.07%, the viability at 7.9 µM came out at 29.3 ± 2.09%, the viability at 26 µM turned out to be 12.5 ± 0.39% and the viability at 52 µM is 8.95 ± 0.65%.
Molecule `COc1cc(C2=C(c3cn(CCCN)c4ccccc34)C(=O)NC2=O)cc(OC)c1OC.Cl` [Example 2, 3-(1-[3-Ammoniopropyl]-1H-indol-3-yl)-4-(3,4,5-trimethoxyphenyl)-maleinimide-chloride] displayed a melting point of 274 to 275 °C. For the same molecule, in series [1], the viability at 2.6 µM stood at 45.8 ± 3.25%, the viability at 7.9 µM is 36.4 ± 1.77%, the viability at 26 µM is 17.65 ± 0.13% and the viability at 52 µM stood at 6.68 ± 0.29%.
In the same order, the values of `COc1cc(C2=C(c3cn(CCO)c4ccccc34)C(=O)NC2=O)cc(OC)c1OC` [Example 3, 3-(1-[2-Hydroxyethyl]-1H-indol-3-yl)-4-(3,4,5-trimethoxyphenyl)-maleinimide] are 195 to 196 °C, 68.8 ± 2.48%, 70.2 ± 3.72%, 45.7 ± 2.18% and 28.7 ± 0.55%.
In the same order, the values of `COc1cc(C2=C(c3cn(CCCO)c4ccccc34)C(=O)NC2=O)cc(OC)c1OC` [Example 4, 3-(1-[3-Hydroxypropyl]-1H-indol-3-yl)-4-(3,4,5-trimethoxyphenyl)-maleinimide] are 160 °C, 37.9 ± 1.3%, 34.7 ± 0.78%, 27.7 ± 1.23% and 25.4 ± 2.26%.
The matching figures for `COc1cc(C2=C(c3cn(CCN(C)C)c4ccccc34)C(=O)NC2=O)cc(OC)c1OC` [Example 5, 3-{1-[2-(Dimethylamino)ethyl]-1H-indol-3-yl}-4-(3,4,5-trimethoxyphenyl)-maleinimide]: 184 to 185 °C, 68.5 ± 8.69%, 52.6 ± 0.53%, 32.2 ± 0.9% and 15 ± 0.9%.
On to `COc1cc(C2=C(c3cn(CCCN(C)C)c4ccccc34)C(=O)NC2=O)cc(OC)c1OC` [Example 6, 3-{1-[3-(Dimethylamino)propyl]-1H-indol-3-yl}-4-(3,4,5-trimethoxyphenyl)maleinimide], for which the melting point fell in the range of 187 to 188 °C. For the same molecule, in series [1], the viability at 2.6 µM worked out at 39.3 ± 2.6%, the viability at 7.9 µM worked out at 38.5 ± 2.43%, the viability at 26 µM is 15.8 ± 1.35% and the viability at 52 µM was determined as 19.4 ± 1.32%.
On to `COc1cc(C2=C(c3cn(CCN4CCCCC4)c4ccccc34)C(=O)NC2=O)cc(OC)c1OC` [Example 7, 3-{1-[2-(Piperidin-1-yl)ethyl]-1H-indol-3-yl}-4-(3,4,5-trimethoxyphenyl)-maleinimide], for which the melting point was 179 to 180 °C. In series [1], the viability at 2.6 µM turned out to be 86.5 ± 2.16%, the viability at 7.9 µM was 56.9 ± 3.02%, the viability at 26 µM was found to be 20.1 ± 1.36% and the viability at 52 µM came to 24.3 ± 0.98%.
`COc1cc(C2=C(c3cn(CCN4CCOCC4)c4ccccc34)C(=O)NC2=O)cc(OC)c1OC` [Example 8, 3-{1-(2-Morpholinoethyl)-1H-indol-3-yl}-4-(3,4,5-trimethoxyphenyl)-maleinimide]: the melting point was in the range of 238 to 239 °C. Besides, in series [1], the viability at 2.6 µM turned out to be 81.1 ± 2.99%, the viability at 7.9 µM turned out to be 84.1 ± 2.18%, the viability at 26 µM was found to be 53.39 ± 0.1% and the viability at 52 µM stood at 39.3 ± 1.31%.
In the same order, the values of `COc1cc(C2=C(c3cn(CCCN4CCN(C)CC4)c4ccccc34)C(=O)NC2=O)cc(OC)c1OC` [Example 9, 3-{1-[3-(4-Methylhexahydro-1-pyrazindiylium)propyl]-1H-indol-3-yl}-4-(3,4,5-trimethoxyphenyl)-maleinimide dichloride] are 225 to 226 °C, 66.5 ± 3.1%, 49.9 ± 1.32%, 22.6 ± 1.16% and 15.3 ± 1.21%.
On to `COc1cc(C2=C(c3c[nH]c4ccc(F)cc34)C(=O)NC2=O)cc(OC)c1OC` [Example 10, 3-(5-Fluoro-1H-indol-3-yl)-4-(3,4,5-trimethoxyphenyl)-maleinimide], for which the melting point was 232 to 233 °C.
Still for that read-out and setting: then `COc1cc(C2=C(c3c[nH]c4ccc(Br)cc34)C(=O)NC2=O)cc(OC)c1OC` [Example 11, 3-(5-Bromo-1H-indol-3-yl)-4-(3,4,5-trimethoxyphenyl)-maleinimide], with 259 to 262 °C.
With `COc1cc(C2=C(c3c[nH]c4cccnc34)C(=O)NC2=O)cc(OC)c1OC` [Example 12, 3-(4-Azaindol-3-yl)-4-(3,4,5-trimethoxyphenyl)-1H-pyrrol-2,5-dione], the melting point is 274 to 275 °C.
